{"source": "patent US6784164B2", "about": "“Choline binding proteins for anti-pneumococcal vaccines” (priority 1996, dated 2004)", "molecules": {"B1": {"name": "2-phospho-D-glycerate hydrolyase (protein, UniProt P00924 2-437, looked up)", "Enolase 1": "AVSKVYARSVYDSRGNPTVEVELTTEKGVFRSIVPSGASTGVHEALEMRDGDKSKWMGKGVLHAVKNVNDVIAPAFVKANIDVKDQKAVDDFLISLDGTANKSKLGANAILGVSLAASRAAAAEKNVPLYKHLADLSKSKTSPYVLPVPFLNVLNGGSHAGGALALQEFMIAPTGAKTFAEALRIGSEVYHNLKSLTKKRYGASAGNVGDEGGVAPNIQTAEEALDLIVDAIKAAGHDGKIKIGLDCASSEFFKDGKYDLDFKNPNSDKSKWLTGPQLADLYHSLMKRYPIVSIEDPFAEDDWEAWSHFFKTAGIQIVADDLTVTNPKRIATAIEKKAADALLLKVNQIGTLSESIKAAQDSFAAGWGVMVSHRSGETEDTFIADLVVGLRTGQIKTGAPARSERLAKLNQLLRIEEELGDNAVFAGENFHHGDKL", "notes": "glycolytic enzyme enolase (Sigma), yeast"}, "B2": {"name": "CBP112: 112 kDa surface exposed pneumococcal choline binding protein, N-terminal SEQ ID NO:1 (protein)", "chain": "MMREIQLDRRKHTQNVALNIKLSAIKTKYLRELNVLEEKSKDELPSEIKAKLDAAFEKFKKDTLKPGEKVAEAKKKVEEAKKKAEDQKEEDRRNYPTNTYKTLELEIAEFDVKVKEAELELVKEEAKESRNEGTIKQAKEKVESKKAEATRLENIKTDRKKAEEEAKRKADAKLKEANVATSDQGKPKGRAKRGVPGELATPDKKENDAKSSDSSVGEETLPSSSLKSGKKVAEAEKKVEEAEKKAKDQKEEDRRNYPTNTYKTLDLEIAESDVKVKEAELELVKEEAKEPRDEEKIKQAKAKVESKKAEATRLENIKTDRKKAEEEAKRKAAEEDKVKEKPAEQPQPAPATQPEKPAPKPEKPAEQPKAEKTDDQQAEEDYARRSEEEYNRLTQQQPPKTEKPAQPSTPKTGWKQENGMWYFYNTDGSMATGWLQNNGSWYYLNANGAMATGWLQNNGSWYYLNANGSMATGWLQNNGSWYYLNANGAMATGWLQYNGSWYYLNSNGAMATGWLQYNGSWYYLNANGDMATGWLQNNGSWYYLNANGDMATGWLQYNGSWYYLNANGDMATGWVKDGDTWYYLEASGAMKASQWFKVSDKWYYVNGSGALAVNTTVDGYGVNANGEWVNZ"}, "B3": {"name": "rsVCAM: recombinant soluble vascular cell adhesion molecule-1 (protein)", "chain": "FKIETTPESRYLAQIGDSVSLTCSTTGCESPFFSWRTQIDSPLNGKVTNEGTTSTLTMNPVSFGNEHSYLCTATCESRKLEKGIQVEIYSFPKDPEIHLSGPLEAGKPITVKCSVADVYPFDRLEIDLLKGDHLMKSQEFLEDADRKSLETKSLEVTFTPVIEDIGKVLVCRAKLHIDEMDSVPTVRQAVKELQVYISPKNTVISVNPSTKLQEGGSVTMTCSSEGLPAPEIFWSKKLDNGNLQHLSGNATLTLIAMRMEDSGIYVCEGVNLIGKNRKEVELIVQEKPFTVEISPGPRIAAQIGDSVMLTCSVMGCESPSFSWRTQIDSPLSGKVRSEGTNSTLTLSPVSFENEHSYLCTVTCGHKKLEKGIQVELYSFPRDPEIEMSGGLVNGSSVTVSCKVPSVYPLDRLEIELLKGETILENIEFLEDTDMKSLENKSLEMTFIPTIEDTGKALVCQAKLHIDDMEFEPKQRQSTQTLYVNVAPRDTTVLVSPSSILEEGSSVNMTCLSQGFPAPKILWSRQLPNGELQPLSENATLTLISTKMEDSGVYLCEGINQAGRSRKEVELIIQVTPKDIKLTAFPSESVKEGDTVIISCTCGNVPETWIILKKKAETGDTVLKSIDGAYTIRKAQLKDAGVYECESKNKVGSQLRSLTLDVQGRENNKDYFSPE"}}, "key": {"[1]": {"test_system": "Adherence of S. pneumoniae to immobilized fibronectin", "assay_type": "cell-based", "details": "for inhibition of pneumococcal adherence to fibronectin: added to coated wells 15 min prior to bacteria", "description": "(§1) Fibronectin, its recombinant fragments, or rsVCAM were noncovalently immobilized through passive adsorption to 60 well Terasaki trays (wettable polystyrene [plasma treated], Robbins Scientific, Sunnyvale, Calif.). Briefly, substrates were reconstituted ([…]) in phosphate buffered saline (DPBS) and allowed to coat the Teresaki trays for 90 min at 37° C. […] Prior to use, the plates were washed five times with DPBS and excess liquid was removed from the wells.\n(§2) Bacteria were labeled with fluorescein isothyocyanate as described [Geelen et al., Infect. Immun., 61:1538-1543 (1993)] and were resuspended in DPBS supplemented with 0.05% glucose and Ca^++ and Mg^++. Bacterial suspensions were brought to an A620 of 0.04, previously established to equal 1×10^7 cfu/ml of S. pneumoniae. 10 μl of bacteria were added to each well and incubated statically for 1 hour at 37° C. Unbound bacteria were eliminated by washing five times with DPBS. Bound bacteria were fixed to the surface by incubation with 2.5% glutaraldehyde solution for 3 minutes. Bacteria were counted visually with an inverted microscope (Nikon) equipped for fluorescence with an IF DM 510 filter. Binding was expressed as the number of attached bacteria per 0.25 mm^2 surface area. Values were corrected for non-specific binding by subtracting adherence to uncoated wells and are presented as the mean±standard deviation of at least 3 experiments with 3 to 6 wells/plate/experiment. For some experiments, binding was performed in the presence of rabbit polyclonal anti-pneumococcus R6 antibody or one of the following monoclonal antibodies: anti-choline (TEPC-15), anti-PspA Xi126 and XiR278 [McDaniel et al., Microb. Pathog., 13:261-9 (1992)]; anti-pneumococcal surface adhesin A PsaA [Sampson et al., Infect. Immun., 62:319-324 (1994)]; anti-VLA-4 (R & D Systems); and anti-VCAM-1 (R & D Systems). Alternatively, potential inhibition of pneumococcal binding was assessed in the presence of purified recombinant PspA or PsaA."}, "[2]": {"experiment": "Antigenicity: CBPs injected into rabbits, sera tested by Western blot", "design": "species or system rabbit", "description": "Vaccine candidates must be antigenic. The CBPs from choline agarose chromatography were injected into rabbits and sera tested for cross reactivity. Several proteins produced a strong signal. Prominent were CBPs 112, 90, 84 and 70, and 50 (FIGS. 1 and 2).\nWhite rabbits were immunized by intradermal injection in the back with 500 μg purified CBPs in 1 ml of a 1:1 emulsion of buffer and Complete Freund's Adjuvant. The rabbits were boosted with a subcutaneous dorsal injection of 250 μg of purified CBPs in 1 ml of 1:1 buffer to Incomplete Freund's Adjuvant at weeks 3, 6, 9, 12, and 15. Rabbits were pre-bled, and test bled approximately 10 days prior to each boost. Serum obtained at week 16 were used in all experiments.\n(§3) The CBPs were examined by SDS-PAGE and Western blot using the following antibodies: (1) polyclonal anti-pneumococcal serum (rabbit or “ROB”); (2) anti-PspA monoclonal antibody; (3) anti-FITC monoclonal antibody; (4) convalescent human anti-pneumococcal sera and (5) polyclonal anti-CBP antibody. 9 CBPs were identified on SDS-PAGE/Western blot."}, "[3]": {"test_system": "S. pneumoniae", "experiment": "Direct adherence of S. pneumoniae to wells coated with VCAM-1, fibronectin fragments, peptides or enolase", "assay_type": "cell-based", "description": "as §1, §2"}, "[4]": {"experiment": "Western blot of CBPs with pooled human convalescent sera", "description": "as §3\nThe CBPs were analyzed by 7.5% sodium dodecyl sulfate polyacrylamide gel electrophoresis (SDS-PAGE) and by Western blotting after electrophoretic transfer to an Immobilon-P transfer membrane (Millipore Corporation, Bedford, Mass.). For some experiments, pneumococci were labelled with fluorescein isothiocyanate (FITC) as described in the adherence assay. Western blot analysis was carried out with anti-FITC (Moleular Probes), anti-CBP or covalescent antisera each at a dilution of 1:1000. Bound antibody was detected with peroxidase conjugated goat anti-rabbit serum detected with the Chemiluminesce Kit from Amersham (Cambridge, Mass.). The convalescent sera was a mixture of sera pooled from five patients collected one month after recovery from bacteremia and pneumonia. The capsular serotypes of these infecting pneumococci were 3, 7, 14, 22, and 23."}}, "note": "Where two headings read alike, the source gives them in different places. No end group written: not given here.", "data": [{"molecule": "NCCCCCC(=O)O", "note": "[6-amino hexanoic acid]", "values": [{"measurement": "inhibition of pneumococcal adherence to fibronectin (in words)", "setting": "[1]", "value": "not able to inhibit adherence"}]}, {"molecule": "NCCCC[C@H](N)C(=O)O", "note": "[L-lysine]", "values": [{"measurement": "inhibition of pneumococcal adherence to fibronectin", "setting": "[1]; 0.1 M", "value": 67, "unit": "%"}, {"measurement": "inhibition of pneumococcal adherence to fibronectin", "setting": "[1]; 0.5M", "value": 95, "unit": "%"}, {"measurement": "inhibition of pneumococcal adherence to fibronectin", "setting": "[1]; 1 M", "value": 99, "unit": "%"}]}, {"molecule": "C[N+](C)(C)CCO", "note": "[choline]", "values": [{"measurement": "decrease in binding of pneumococci to fibronectin", "setting": "[1]; preincubation of bacteria in 10% choline solution", "value": "greater than 50%"}]}, {"molecule": "CBP84: pneumococcal choline binding protein, SEQ ID NO:3, 85% identical to Elongation Factor G (XREFSLEKTRNIGIMAHVDAGKT; X: residue not identified in the source)", "values": [{"measurement": "signal with sera of rabbits injected with CBPs", "setting": "[2]", "value": "strong signal"}]}, {"molecule": "WQPPRARI [FN5]", "values": [{"measurement": "direct adherence of S. pneumoniae to coated substrate (in words)", "setting": "[3]", "value": "able to support adherence"}]}, {"molecule": "B1", "values": [{"measurement": "direct adherence of S. pneumoniae to coated substrate (in words)", "setting": "[3]", "value": "No direct adherence"}, {"measurement": "maximum inhibition of pneumococcal adherence to fibronectin", "setting": "[1]; 1000 U/ml, added to fibronectin coated wells prior to bacteria", "value": 98, "unit": "%"}]}, {"molecule": "B2", "values": [{"measurement": "signal with pooled human antisera from individuals recovering from pneumococcal disease", "setting": "[4]", "value": "strong signal"}, {"measurement": "signal with sera of rabbits injected with CBPs", "setting": "[2]", "value": "strong signal"}]}, {"molecule": "B3", "values": [{"measurement": "density of S. pneumoniae adhering directly to coated wells", "setting": "[3]", "value": "75±18", "unit": "bacteria/0.25 mm ^2"}, {"measurement": "direct adherence as share of adherence to whole fibronectin", "setting": "[3]", "value": 6, "unit": "%"}, {"measurement": "inhibition of adherence of S. pneumoniae to fibronectin", "setting": "[1]; preincubation of the bacteria with the substance", "value": 96, "unit": "%"}]}]}
